Experimental data: US20230338545A1 (SYRACUSE UNIVERSITY, priority 2020, published 2023)
Entries after “also recorded” stand apart in the source; their conditions may differ.

Legend:
[1] = comparison value; cited from earlier work
CaCo-2 cells = assay: Cellular uptake of magnesium in CaCo-2 cells; format: cell-based, human; settings: incubation time 1 hr, samples contain ~8% magnesium citrate

Compound	water solubility of free ligand [1]	cellular uptake of magnesium (CaCo-2 cells)	solubility (Solubility in water; Example 3 product)	solubility relative to that of the free ligand (Solubility in water; complex vs. its ligand (maltol or ethylmaltol), water)	solubility (Solubility in water; triplicate independent runs)
CCc1occc(=O)c1O [ethylmaltol]	5.84 g/100 mL				
Cc1occc(=O)c1O [maltol, 3-HYDROXY-2-METHYL-4H-PYRAN-4-ONE]	1.2 g/100 mL				
magnesium maltol [Complex 1]		substantial uptake of magnesium; also recorded: confirmed cellular entry			
magnesium ethylmaltol [Complex 2]		substantial uptake of magnesium; also recorded: slightly greater uptake than Complex 1; also recorded: confirmed cellular entry	26.8 g/100 mL H2O	approximately 4.9 ×	28.4±0.86 g per 100 mL of H2O
